The results in this text go back to patent US5882881A, “Inhibition of cyst formation by cytoskeletal specific drugs” (priority 1998, dated 1999).

The structures appear in SMILES notation.

Holding throughout (format): in vivo, mouse
The test system of one data set is homozygous cpk mice. Put plainly: Survival of cpk mice on weekly intraperitoneal treatment (Example 8, FIG. 2). From the text: Untreated and methotrexate (MTX) treated polycystic cpk mice all died before 30 days of age. Most polycystic cpk mice treated with weekly taxol survive more than 60 days. The dotted line starting at day 120 indicates the number and age of apparently healthy taxol treated polycystic mice that were sacrificed for histology studies. Pairs of mice were sacrificed at 120 days, 182 days and 210 days of age.
In order to determine whether taxol prevents cyst formation by inhibiting cell division, another drug known to have anti-mitotic activity, methotrexate, was tested for its ability to treat homozygous cpk mice. Six cpk mice were injected intraperitoneally with 15 μl of methotrexate solution (1.1 mg/ml in water) 10-12 days after birth and once every week thereafter. The methotrexate-injected mice survived until between 18 and 27 days after birth, with only one mouse living longer than 28 days. […] Therefore, the anti-mitotic activity of taxol cannot explain its ability to treat CPK mice having a polycystic-type kidney disease. Rather, the results from in vitro tests indicate that agents which interfere with the function of the cytoskeleton, or which inhibit the delivery of membrane proteins are useful in treating cystic diseases such as Polycystic Kidney Disease.
(§1) Eleven homozygous cpk mice, raised and identified as in Example 6 were treated with 15 μl of 10 mg/ml taxol in DMSO through intraperitoneal injection beginning 11-14 days after birth. Following the first treatment, the mice were administered with the same treatment once every week thereafter. As controls, 6 cpk mice were treated with 15 μl intraperitoneal injections of DMSO beginning 10-12 days after birth and then once every week thereafter.

For a further data set, the system named is cpk mice. Put plainly: Growth and survival of cpk mice treated with taxol or methotrexate (FIG. 3B). The source says: […]. The body weights of untreated, taxol treated and methotrexate treated C57BL/6j mice between day 10 and day 45 after birth is shown in A. The body weights of untreated, taxol treated and methotrexate treated cpk mice are shown in B. Results in each group are the mean of 6 animals. Untreated and methotrexate treated cpk mice died between days 26 and 28. […].
In a related procedure I treated both normal C57BL/6 and cpk mice at 11-14 days of age with either taxol or methotrexate as described above. Six untreated mice served as controls in this experiment.

The subject of the next data set is cpk mice kidney. Conditions: weekly taxol for 200 days. The protocol: […]. Untreated and methotrexate (MTX) treated polycystic cpk mice all died before 30 days of age. […]. The dotted line starting at day 120 indicates the number and age of apparently healthy taxol treated polycystic mice that were sacrificed for histology studies. Pairs of mice were sacrificed at 120 days, 182 days and 210 days of age.
as §1

`CC(=O)O[C@H]1C(=O)[C@@]2(C)[C@H]([C@H](OC(=O)c3ccccc3)[C@]3(O)C[C@H](OC(=O)[C@H](O)[C@@H](NC(=O)c4ccccc4)c4ccccc4)C(C)=C1C3(C)C)[C@]1(OC(C)=O)CO[C@@H]1C[C@@H]2O` [Taxol]: the “survival (in words)” value in the data set on homozygous cpk mice (weekly i.p., versus untreated or DMSO) is “generally experienced substantially longer life spans”. In the data set with homozygous cpk mice (weekly taxol, pairs sacrificed at 120, 182 and 210 days of age), the “condition of treated polycystic mice (in words)” value was “remained active until sacrifice and attained adult size and weight, despite having palpably enlarged kidneys”. In the data set on cpk mice (FIG. 3, mean of 6 animals), this compound registered an average survival of 45 ± 2 days. Besides, the “weight gain (in words)” value in the data set with cpk mice (cpk mice, versus DMSO or methotrexate) was “gained weight at substantially the same or lower rate”. The “lifespan (in words)” value in the data set on cpk mice (versus DMSO or methotrexate-treated mice) is reported as “substantially longer lifespans”. For the same compound, in the data set on cpk mice kidney, the “kidney histology of control mice” value is recorded as “normal kidney histology”.
